Reference: PubChem BioAssay AID1963825 (Molecular Pharmacology Branch, DTP, NCI, 2024)

Assay: Anticancer human tumor 997537-175-T-J1-PDC patient-derived colon adenocarcinoma cell line growth inhibition [POLQ]
Settings: 997537-175-T-J1-PDC complex spheroid viability, combination with POLQ inhibitors; for IC50: curve of first compound; for viability, T/C: stronger effect = lower value; active means viability on the fitted dose curve at most 10% of control; inactive means the rest
Procedure, shortened: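 Three-cell-type spheroids modelling solid tumor plus stroma served as the readout system; POL inhibitors were tested individually and in combination, concentration ranges set by clinical Cmax where known.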

[1] = second compound 0.0316 µM, first compound 0.0316 µM
[2] = second compound 0.0316 µM, first compound 0.1 µM
[3] = second compound 0.0316 µM, first compound 0.316 µM
[4] = second compound 0.0316 µM, first compound 1 µM
[5] = second compound 0.0316 µM, first compound 3.16 µM
[6] = second compound 0.0316 µM, first compound 10 µM
[7] = second compound 0.1 µM, first compound 0.0316 µM
[8] = second compound 0.1 µM, first compound 0.1 µM
[9] = second compound 0.1 µM, first compound 0.316 µM
[10] = second compound 0.1 µM, first compound 1 µM
[11] = second compound 0.1 µM, first compound 3.16 µM
[12] = second compound 0.1 µM, first compound 10 µM
[13] = second compound 0.316 µM, first compound 0.0316 µM
[14] = second compound 0.316 µM, first compound 0.1 µM
[15] = second compound 0.316 µM, first compound 0.316 µM
[16] = second compound 0.316 µM, first compound 1 µM
[17] = second compound 0.316 µM, first compound 3.16 µM
[18] = second compound 0.316 µM, first compound 10 µM
[19] = second compound 1 µM, first compound 0.0316 µM
[20] = second compound 1 µM, first compound 0.1 µM
[21] = second compound 1 µM, first compound 0.316 µM
[22] = second compound 1 µM, first compound 1 µM
[23] = second compound 1 µM, first compound 3.16 µM
[24] = second compound 1 µM, first compound 10 µM
[25] = second compound 3.16 µM, first compound 0.0316 µM
[26] = second compound 3.16 µM, first compound 0.1 µM
[27] = second compound 3.16 µM, first compound 0.316 µM
[28] = second compound 3.16 µM, first compound 1 µM
[29] = second compound 3.16 µM, first compound 3.16 µM
[30] = second compound 3.16 µM, first compound 10 µM
[31] = second compound 10 µM, first compound 0.0316 µM
[32] = second compound 10 µM, first compound 0.1 µM
[33] = second compound 10 µM, first compound 0.316 µM
[34] = second compound 10 µM, first compound 1 µM
[35] = second compound 10 µM, first compound 3.16 µM
[36] = second compound 10 µM, first compound 10 µM
[37] = second compound 0.0316 µM, first compound 0.00316 µM
[38] = second compound 0.0316 µM, first compound 0.01 µM
[39] = second compound 0.1 µM, first compound 0.00316 µM
[40] = second compound 0.1 µM, first compound 0.01 µM
[41] = second compound 0.316 µM, first compound 0.00316 µM
[42] = second compound 0.316 µM, first compound 0.01 µM
[43] = second compound 1 µM, first compound 0.00316 µM
[44] = second compound 1 µM, first compound 0.01 µM
[45] = second compound 3.16 µM, first compound 0.00316 µM
[46] = second compound 3.16 µM, first compound 0.01 µM
[47] = second compound 10 µM, first compound 0.00316 µM
[48] = second compound 10 µM, first compound 0.01 µM
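Further: luminescence signal used as a surrogate for viable cells; spheroids exposed to drugs for seven days before readout.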

Nc1ccn(C2OC(CO)C(O)C2(F)F)c(=O)n1 (stereo not drawn) + Cc1cccc(N(C)C(=O)C2C(O)CCN2c2nc(C)cc(C(F)(F)F)c2C#N)c1
> 10 µM: IC50 (second compound 0.0316 µM) | IC50 (second compound 0.1 µM) | IC50 (second compound 0.316 µM) | IC50 (second compound 1 µM) | IC50 (second compound 3.16 µM) | IC50 (second compound 10 µM)
inactive: viability, T/C [1] 96.2% | viability, T/C [2] 99.7% | viability, T/C [3] 91.8% | viability, T/C [4] 89.8% | viability, T/C [5] 57.8% | viability, T/C [6] 77% | viability, T/C [7] 106% | viability, T/C [8] 91.5% | viability, T/C [9] 85.1% | viability, T/C [10] 67.1% | viability, T/C [11] 90.5% | viability, T/C [12] 52.8% | viability, T/C [13] 91.4% | viability, T/C [14] 102% | viability, T/C [15] 79.3% | viability, T/C [16] 76.7% | viability, T/C [17] 80.4% | viability, T/C [18] 63.5% | viability, T/C [19] 91.8% | viability, T/C [20] 102% | viability, T/C [21] 73.7% | viability, T/C [22] 68.4% | viability, T/C [23] 66% | viability, T/C [24] 66.7% | viability, T/C [25] 95.3% | viability, T/C [26] 103% | viability, T/C [27] 90.4% | viability, T/C [28] 92.5% | viability, T/C [29] 86.1% | viability, T/C [30] 70.7% | viability, T/C [31] 94.8% | viability, T/C [32] 97.2% | viability, T/C [33] 96.6% | viability, T/C [34] 86.9% | viability, T/C [35] 47.2% | viability, T/C [36] 82%

O=C(c1cc(Cc2n[nH]c(=O)c3ccccc23)ccc1F)N1CCN(C(=O)C2CC2)CC1 + COC1C(OC(N)=O)C(O)C(Oc2ccc3c(O)c(NC(=O)c4ccc(O)c(CC=C(C)C)c4)c(=O)oc3c2C)OC1(C)C
inactive: viability, T/C [1] 98.2% | viability, T/C [2] 99.8% | viability, T/C [3] 99.1% | viability, T/C [4] 88.3% | viability, T/C [5] 93% | viability, T/C [6] 101% | viability, T/C [7] 73.7% | viability, T/C [8] 91.7% | viability, T/C [9] 101% | viability, T/C [10] 106% | viability, T/C [11] 99% | viability, T/C [12] 101% | viability, T/C [13] 105% | viability, T/C [14] 112% | viability, T/C [15] 98.9% | viability, T/C [16] 96.8% | viability, T/C [17] 100% | viability, T/C [18] 107% | viability, T/C [19] 100% | viability, T/C [20] 98% | viability, T/C [21] 110% | viability, T/C [22] 92.7% | viability, T/C [23] 77.1% | viability, T/C [24] 96.3% | viability, T/C [25] 101% | viability, T/C [26] 95.1% | viability, T/C [27] 94.7% | viability, T/C [28] 86% | viability, T/C [29] 95.8% | viability, T/C [30] 96.9% | viability, T/C [31] 102% | viability, T/C [32] 78% | viability, T/C [33] 104% | viability, T/C [34] 98.5% | viability, T/C [35] 91.7% | viability, T/C [36] 107%
> 10 µM: IC50 (second compound 0.0316 µM) | IC50 (second compound 0.1 µM) | IC50 (second compound 0.316 µM) | IC50 (second compound 1 µM) | IC50 (second compound 3.16 µM) | IC50 (second compound 10 µM)

C=CCn1c(=O)c2cnc(Nc3ccc(N4CCN(C)CC4)cc3)nc2n1-c1cccc(C(C)(C)O)n1 + Nc1ccc(C#CCN(C(=O)Cc2ncc(C(F)(F)F)cc2C(F)(F)F)c2ccc(F)cc2)nn1
> 1 µM: IC50 (second compound 0.0316 µM) | IC50 (second compound 0.1 µM) | IC50 (second compound 0.316 µM) | IC50 (second compound 1 µM) | IC50 (second compound 3.16 µM) | IC50 (second compound 10 µM)
inactive: viability, T/C [37] 92.5% | viability, T/C [38] 99.7% | viability, T/C [1] 89.3% | viability, T/C [2] 97.9% | viability, T/C [3] 89.8% | viability, T/C [4] 50.6% | viability, T/C [39] 95.9% | viability, T/C [40] 96.8% | viability, T/C [7] 94.4% | viability, T/C [8] 95.1% | viability, T/C [9] 98.4% | viability, T/C [10] 73% | viability, T/C [41] 92.6% | viability, T/C [42] 97.3% | viability, T/C [13] 90.8% | viability, T/C [14] 82% | viability, T/C [15] 76.3% | viability, T/C [16] 55.1% | viability, T/C [43] 88.3% | viability, T/C [44] 104% | viability, T/C [19] 94.4% | viability, T/C [20] 84.5% | viability, T/C [21] 92.9% | viability, T/C [22] 62.2% | viability, T/C [45] 81.3% | viability, T/C [46] 93.7% | viability, T/C [25] 94.8% | viability, T/C [26] 94.3% | viability, T/C [27] 106% | viability, T/C [28] 55.1% | viability, T/C [47] 96.5% | viability, T/C [48] 85.5% | viability, T/C [31] 87.6% | viability, T/C [32] 80.9% | viability, T/C [33] 97.4% | viability, T/C [34] 72.9%

C=CCn1c(=O)c2cnc(Nc3ccc(N4CCN(C)CC4)cc3)nc2n1-c1cccc(C(C)(C)O)n1 + Cc1cccc(N(C)C(=O)C2C(O)CCN2c2nc(C)cc(C(F)(F)F)c2C#N)c1
inactive: viability, T/C [37] 101% | viability, T/C [38] 100% | viability, T/C [1] 93.9% | viability, T/C [2] 90.9% | viability, T/C [3] 100% | viability, T/C [4] 76.2% | viability, T/C [39] 99.4% | viability, T/C [40] 109% | viability, T/C [7] 95% | viability, T/C [8] 88.8% | viability, T/C [9] 81.2% | viability, T/C [10] 64.2% | viability, T/C [41] 89.4% | viability, T/C [42] 113% | viability, T/C [13] 110% | viability, T/C [14] 91.9% | viability, T/C [15] 83.2% | viability, T/C [16] 75% | viability, T/C [43] 118% | viability, T/C [44] 109% | viability, T/C [19] 106% | viability, T/C [20] 99.8% | viability, T/C [21] 113% | viability, T/C [22] 84.9% | viability, T/C [45] 93.2% | viability, T/C [46] 95.6% | viability, T/C [25] 101% | viability, T/C [26] 96.1% | viability, T/C [27] 85.4% | viability, T/C [28] 59.6% | viability, T/C [47] 111% | viability, T/C [48] 99.5% | viability, T/C [31] 95.3% | viability, T/C [32] 93.6% | viability, T/C [33] 78.9% | viability, T/C [34] 94.8%
> 1 µM: IC50 (second compound 0.0316 µM) | IC50 (second compound 0.1 µM) | IC50 (second compound 0.316 µM) | IC50 (second compound 1 µM) | IC50 (second compound 3.16 µM) | IC50 (second compound 10 µM)
